From paper PMC7044277 (Nature Communications, 2020)
Several values for one entry are separate records, joined by “and”; a condition that tells them apart may be missing. Equal entries are not always repeated.

Key:
Assay type in all cases: cell-based
[1] = target: T1, 320 non-olfactory GPCRs (Homo sapiens, UniProt O15552)
T1 construct: expressed in transfected cells; host or cells: HTLA cells

[2] = target: T2, 320 non-olfactory GPCRs (Homo sapiens, UniProt P25116)
T2 construct: expressed in transfected cells; host or cells: HTLA cells

[3] = target: T3, 320 non-olfactory GPCRs (Homo sapiens, UniProt P48039); conditions: receptor MTNR1A; replicate values, Fig_4g
T3 construct: expressed in transfected cells; host or cells: HTLA cells

[4] = target: T4, 320 non-olfactory GPCRs (Homo sapiens, UniProt Q9GZQ4); conditions: receptor NMUR2; replicate values, Fig_4g
T4 construct: expressed in transfected cells; host or cells: HTLA cells
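Wherever Fold of Basal is given: compound tested at 1 µM final concentration.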
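Wherever GPCRome agonism screen response is given: fold over basal response of each receptor without drug.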

T2 sequence (P25116 22-425): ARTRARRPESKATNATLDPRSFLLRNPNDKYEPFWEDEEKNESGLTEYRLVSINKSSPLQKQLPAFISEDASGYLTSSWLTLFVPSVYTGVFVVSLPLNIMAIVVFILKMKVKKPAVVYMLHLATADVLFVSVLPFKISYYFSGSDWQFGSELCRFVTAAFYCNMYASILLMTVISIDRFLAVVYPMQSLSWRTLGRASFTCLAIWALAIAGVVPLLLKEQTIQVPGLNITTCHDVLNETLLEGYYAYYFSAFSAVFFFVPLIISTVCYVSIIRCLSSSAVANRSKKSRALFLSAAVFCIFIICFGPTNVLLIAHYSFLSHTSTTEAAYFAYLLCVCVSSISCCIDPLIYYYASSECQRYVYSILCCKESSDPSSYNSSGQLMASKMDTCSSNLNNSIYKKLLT
T4 sequence (Q9GZQ4 whole entry): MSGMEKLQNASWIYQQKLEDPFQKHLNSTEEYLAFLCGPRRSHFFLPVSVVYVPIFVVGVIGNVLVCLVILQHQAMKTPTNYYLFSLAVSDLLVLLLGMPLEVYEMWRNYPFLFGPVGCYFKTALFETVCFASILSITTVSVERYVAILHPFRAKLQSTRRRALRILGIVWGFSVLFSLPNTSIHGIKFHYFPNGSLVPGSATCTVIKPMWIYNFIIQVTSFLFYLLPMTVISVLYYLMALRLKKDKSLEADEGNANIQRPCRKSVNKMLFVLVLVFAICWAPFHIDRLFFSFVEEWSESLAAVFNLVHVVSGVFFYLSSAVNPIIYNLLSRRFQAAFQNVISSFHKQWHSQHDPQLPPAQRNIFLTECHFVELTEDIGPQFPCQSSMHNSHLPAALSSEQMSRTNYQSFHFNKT
T3 sequence (P48039 whole entry): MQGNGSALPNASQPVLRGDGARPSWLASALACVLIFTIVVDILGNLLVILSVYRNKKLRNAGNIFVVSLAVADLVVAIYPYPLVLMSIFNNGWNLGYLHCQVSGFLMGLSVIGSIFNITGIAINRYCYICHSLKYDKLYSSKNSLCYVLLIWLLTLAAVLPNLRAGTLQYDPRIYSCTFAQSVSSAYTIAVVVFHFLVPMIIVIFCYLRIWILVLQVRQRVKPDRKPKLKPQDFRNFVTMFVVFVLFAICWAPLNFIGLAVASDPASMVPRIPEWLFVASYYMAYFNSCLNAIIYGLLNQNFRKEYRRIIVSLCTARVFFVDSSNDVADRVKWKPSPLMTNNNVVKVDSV
T1 sequence (O15552 whole entry): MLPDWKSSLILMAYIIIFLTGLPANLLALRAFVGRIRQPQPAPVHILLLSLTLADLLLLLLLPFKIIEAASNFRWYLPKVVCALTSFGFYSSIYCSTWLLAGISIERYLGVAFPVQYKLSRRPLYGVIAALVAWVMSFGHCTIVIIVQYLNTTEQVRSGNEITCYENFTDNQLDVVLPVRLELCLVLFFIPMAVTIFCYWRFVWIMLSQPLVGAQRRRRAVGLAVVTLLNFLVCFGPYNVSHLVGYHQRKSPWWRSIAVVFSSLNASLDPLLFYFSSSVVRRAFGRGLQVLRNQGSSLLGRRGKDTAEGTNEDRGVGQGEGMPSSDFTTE

CCOc1cccc2cc(C(C)NCC3(O)CCCCC3)oc12 (stereo not shown) [O4LE6]
Fold of Basal [1]: 0.7744 and 0.8932 and 0.7484 and 0.9767 | Fold of Basal [2]: 0.906 and 0.8507 and 1.071 and 1.142 | GPCRome agonism screen response [3]: 2.743 and 4.229 and 2.242 and 2.817 | GPCRome agonism screen response [4]: 1.0233 and 1.105 and 1.159 and 0.9738
